# Source: patent US20110160266A1, “Novel Anti-Arrhythmia Agent” (THE UAB RESEARCH FOUNDATION, priority 2008, published 2011)
# “Also recorded” adds a separate entry of the source. Marks after values point to notes of the source that are not given here.
# Tests used:
# rat right atria = experiment: Right atrial spontaneous contraction frequency
# Experimental: (§1) Left atria (n=9) were paced at 0.1 Hz, treated with 300 nM BayK 8644 for 5 min, then with 20 μM 2-APB for 10 min, and the pacing stimulus was stopped. These preparations then were incubated with six increasing concentrations of zatebradine (10-100 μM) for 3-5 min at each concentration, and rates of SMA were recorded. Untreated right atria (n=9) also were titrated with zatebradine and its effect on contraction frequency was recorded.
# (§2) To test whether zatebradine affects the SMA occurring in the presence of 2-APB and isoproterenol, left atria (n=7) were paced at 0.1 Hz, treated with 30 nM isoproterenol for 5 min, then with 20 μM 2-APB for 10 min, and the pacing stimulus was stopped. Rates of SMA were recorded, these left atria were exposed to 70 μM zatebradine for 10 min, and rates of SMA were recorded again. A group of right atria (n=7) also were exposed to 30 nM isoproterenol for 5 min and then to 70 μM zatebradine for 10 min. Right atrial contraction frequency was recorded at these two times.
# (§3) To test whether ZD-7288, an If inhibitor structurally unrelated to zatebradine (Baruscotti et al., 2005; Sanders et al., 2006) affects the SMA occurring in the presence of 2-APB and BayK 8644, rat left atria (n=7) were treated with 300 nM BayK 8644 for 5 min, then with 20 μM 2-APB for 10 min, and the rates of ectopic activity were recorded. These atria then were incubated with six increasing concentrations of ZD-7288 (10-100 μM) for 3-5 min at each concentration, and the rates of SMA were recorded. Right atria (n=7) were titrated similarly with ZD-7288 (0-100 μM) and the change in their contraction frequency was recorded.
# rat left atria [1] = experiment: Suppression of STA induced by 2-APB plus BayK 8644 or isoproterenol in left atria
# Experimental: 3 Hz-paced left atria (n=9 per group) were superfused (i) in Krebs-Henseleit alone or (ii) they were treated with 20 μM 2-APB for 10 min, (iii) with 300 nM BayK 8644 for 10 min and with 20 μM 2-APB for 10 min, or (iv) they were treated with 300 nM BayK 8644 and 20 μM 2-APB for 10 min, then with 70 μM zatebradine (3-[3-[[2-(3,4-Dimethoxyphenyl)ethyl]methyl amino]propyl]-1,3,4,5-tetrahydro-7,8,-dimethoxy-2H-3-benzazepin-2-one hydrochloride) for 10 min (Baruscotti et al., 2005). Pacing was interrupted at these times and rates of SMA were recorded.
# as §1
# To test whether zatebradine affects left atrial force of contraction, two groups of left atria (n=9 per group) were paced at 3 Hz and treated with 300 nM BayK 8644. Five minutes later one group was incubated with six increasing concentrations of zatebradine (10-100 μM) for 3-5 min at each concentration, and forces of contraction were recorded. A second group was treated with BayK 8644 but not zatebradine, and forces of contraction were recorded at corresponding times.
# as §2, §3
# In these experiments, a 2-APB model system was used to simulate tachycardic abnormal automaticity. Specifically, superfused left atria were treated sequentially with 300 nM BayK 8644, an activator of voltage-dependent calcium entry, which loads myocytes with calcium, and then with 2-APB (20 μM) to activate the putative myocyte system for abnormal automaticity. […] SKF-96365 (10 μM) was added to the superfusate. SKF-96365 reversed STA in these left atria within 2-3 min and the muscle became quiescent in the absence of pacing (FIG. 34, “Rest”).
# Additional experiments determined the concentration-dependence of SKF-96365 inhibition of STA. These experiments were performed as described above except that various concentrations of SKF-96365 were added to the left atrial superfusate (about 10-70 μM). Exposing left atria to various concentrations of SKF-96365 reversed STA (FIG. 35).
# isolated rat left atria = experiment: Pharmacological activation of spontaneous tachycardic activity (STA): calcium-loading agents with or without 2-APB; conditions: for T0.5R (time to 50% relaxation) / T0.9R (time to 90% relaxation) / TPT (time to peak tension) / SMA Rate: concentrations per footnote; for Force Post: mg force per g atrial wet weight following a 10 min exposure to the agent; for Force Pre: mg force per g atrial wet weight prior to exposure to the agent; for SMA Rate: spontaneous atrial mechanical events; for ectopic activity / mechanical stability without 2-APB / effect on left atrial force of contraction: agent without 2-APB, at the concentration given
# Experimental: Male Sprague-Dawley rats (325-400 g) were anesthetized with intra-peritoneal pentobarbital (0.1 g/kg). Their right and left atria were isolated, superfused at 30° C. in Krebs-Henseleit buffer, and nearly isometric forces of contraction were measured from these muscles (Wolkowicz et al., 2002). 2-APB was prepared as a 150 mM dimethyl sulfoxide stock.
# Left atria (n=8 per group) were paced at 3 Hz and (i) titrated with 0 to 30 nM isoproterenol (Ahlquist, 1970) or (ii) exposed to 3 μM forskolin (Laurenza et al., 1980). Left atrial force and frequency of contraction, the time to peak tension and relaxation times were recorded after a 3-5 min exposure to forskolin or to any concentration of isoproterenol. The 3 Hz pacing stimulus was interrupted at the end of these protocols to measure SMA. […]
# Left atrial contraction and relaxation times were recorded at these five times, the pacing stimulus was stopped and rates of SMA were recorded. […] Atrial mechanical function was measured at these four times; the pacing stimulus then was stopped and rates of SMA were recorded.
# Left atria (n=6 per group) were paced at 3 Hz, titrated with 0 to 300 nM (−)BayK 8644 ([…]-1,4-Dihydro-2,6-dimethyl-5-nitro-4-[2-(trifluormethyl)phenyl]-3-pyridinecarboxylic acid methyl ester; Franckowiak et al. 1985) or FPL-64176 (2,5-Dimethyl-4-[2-(phenylmethyl)benzoyl]-1H-pyrrole-3-carboxlic acid methyl ester); Zheng et al., 1991) and their mechanical function and rates of SMA were recorded after a 5 min exposure to any concentration of slow calcium channel activator.
# Atrial mechanical function was recorded at this time; the pacing stimulus then was stopped and rates of SMA were recorded. […]
# Left atria (n=7) were paced at 3 Hz, treated with 120 μM ouabain (Illanes and Marshall, 1964), and any change in mechanical function was recorded at a new steady state, ˜10 min later. […]
# rat left atria [2] = experiment: Reversal or prevention of 2-APB-induced SMA in superfused rat left atria; conditions: for effect on 2-APB-induced sporadic ectopic activity (SMA): titration after appearance of SMA, absence of pacing
# Experimental: (A) Titration curve of ranolazine reversal of SMA in superfused left atrial appendage. Superfused appendages (n=7) were treated with 2-APB and following the appearance of SMA they were titrated with increasing concentrations of ranolazine for 3-5 min at any concentration. Rates of SMA in the absence of pacing were recorded. (B) Typical raw mechanical data for an appendage treated with 2-APB and then with 0, 10 or 80 μM ranolazine. All data are in the absence of pacing. […]
# To test whether an anion transport inhibitor affected SMA, atria (n=7) were paced at 0.1 Hz in KH and exposed to 15 μM 2-APB. Following the appearance of SMA, they were titrated with 100 to 400 μM DIDS for 3 to 5 min at each concentration. Whether SMA occurred at the end of each titration period was recorded.
# In these experiments, a 2-APB model system was used to simulate abnormal automaticity. Specifically, paced (0.1 Hz) superfused left atria were treated with 2-APB (20 μM) and the pacing stimulus was stopped after the appearance of SMA. SKF-96365 (25 μM) was then added to the superfusate and the effect on SMA was measured.
# Additional experiments determined the concentration-dependence of SKF-96365 inhibtion of SMA. These experiments were performed as described above except that various concentrations of SKF-96365 were added to the left atrial superfusate (about 10-65 μM).
# In these experiments, a 2-APB model system was used to simulate abnormal automaticity. Specifically, superfused left atria were exposed to 0 or to 50 μM SKF-96365 for 10 min. Following this pre-incubation, muscles were titrated with increasing concentrations of 2-APB (0-30 μM) and the rate of SMA was measured about 10 min later in the absence of pacing.
# rat left atria [3] = conditions: 25 nM ATX II
Compound,T0.5R (time to 50% relaxation) (isolated rat left atria),T0.9R (time to 90% relaxation) (isolated rat left atria),TPT (time to peak tension) (isolated rat left atria),Force Post (isolated rat left atria),Force Pre (isolated rat left atria),SMA Rate (isolated rat left atria),ectopic activity / mechanical stability without 2-APB (isolated rat left atria),effect on left atrial force of contraction (isolated rat left atria),also measured
CCN(c1ccccc1)c1cc(NC)[n+](C)c(C)n1.[Cl-] [ZD-7288],,,,,,,,,"effect on right atrial contraction frequency (rat right atria; ZD-7288 0-100 μM): decreases right atrial contraction frequency less robustly than zatebradine; effect on STA initiated by BayK 8644 and 2-APB (rat left atria [1]; 300 nM BayK 8644 + 20 μM 2-APB, zatebradine 70 μM, ZD-7288 10-100 μM, SKF-96365 about 10-70 μM): decreases left atrial STA"
C=C[C@@]1(C)CC(=O)[C@]2(O)[C@@]3(C)[C@@H](O)CCC(C)(C)[C@@H]3[C@H](O)[C@H](OC(C)=O)[C@@]2(C)O1 [forskolin],28.7^‡ msc,58.4^‡ msc,44.6* msc,62* mg/gww,21 mg/gww,0 SMEs per minute,,,
CCN(CC)CC(=O)Nc1c(C)cccc1C [lidocaine],,,,,,,,,effect on 2-APB-induced sporadic ectopic activity (SMA) (rat left atria [2]): suppress this arrhythmic activity
C[C@@H]1O[C@@H](O[C@H]2C[C@@H](O)[C@]3(CO)[C@H]4[C@H](O)C[C@]5(C)[C@@H](C6=CC(=O)OC6)CC[C@]5(O)[C@@H]4CC[C@]3(O)C2)[C@H](O)[C@H](O)[C@H]1O [ouabain],,,,,,,does not produce ectopic activity; also recorded: does not affect their mechanical stability,increases their force of contraction; also recorded: doubles their force of contraction,
"COC(=O)C1=C(C)NC(C)=C([N+](=O)[O-])[C@H]1c1ccccc1C(F)(F)F [BayK 8644, (45)-1,4-Dihydro-2,6-dimethyl-5-nitro-4-[2-(trifluormethyl)phenyl]-3-pyridinecarboxylic acid methyl ester]",35.2 msc,73.2 msc,54.1 msc,83* mg/gww,33 mg/gww,0 SMEs per minute,does not produce ectopic activity,increases their force of contraction,
CC(C)NCC(O)c1ccc(O)c(O)c1 (stereo not drawn) [isoproterenol],29.3^‡ msc,58.7^‡ msc,45.0^‡ msc,104* mg/gww,31 mg/gww,0 SMEs per minute,does not produce ectopic activity,increases their force of contraction,"right atrial contraction frequency (rat right atria; 30 nM isoproterenol for 5 min): 276±11.4 contractions/min; rate of spontaneous tachycardic activity in the absence of pacing (isolated rat left atria; 22 μM 2-APB-treated appendage plus 30 nM isoproterenol, 30° C.): ~230 contractions/min"
COc1ccc(CCN(C)CCCC(C#N)(c2ccc(OC)c(OC)c2)C(C)C)cc1OC (stereo not drawn) [verapamil],,,,,,,,,"triggered events after exposure to verapamil (rat left atria [3]; 10 μM verapamil for 5 min, expanded scale): continued presence of triggered events; effect on left atrial force of contraction / mechanical performance (titration) (rat left atria [3]; 1 Hz-paced, ~5 min at each concentration): markedly decreased contractile force; effect on the rate of triggered activity (titration) (rat left atria [3]; verapamil 2 to 20 μM, ~5 min at each concentration): did not affect the rate of triggered activity"
"COc1ccccc1OCC(O)CN1CCN(CC(=O)Nc2c(C)cccc2C)CC1 (stereo not drawn) [ranolazine, N-(2,6-dimethylphenyl)-2-[4-[2-hydroxy-3-(2-methoxyphenoxy)propyl]piperazin-1-yl]acetamide]",,,,,,,,,"effect on 2-APB-induced sporadic ectopic activity (SMA) (rat left atria [2]): prevent the sporadic ectopic activity; effect on 2-APB-induced sporadic ectopic activity (SMA) (rat left atria [2]; listed as Ranolazine): blocks ectopic activity; effect on tachycardic activity with high calcium loads (rat left atria [1]; data not shown): suppresses, but does not completely prevent"
ryanodine,,,,,,,no STA occurs,Time-dependent decreases in force of contraction,
"O=S(=O)(O)c1cc(N=C=S)ccc1C=Cc1ccc(N=C=S)cc1S(=O)(=O)O [DIDS, 4,4′-diisothiocyanatostilbene-2,2′-disulfonic acid]",,,,,,,,,"DIDS concentration that reversed SMA completely (rat left atria [2]; 15 μM 2-APB, 0.1 Hz, 3 to 5 min at each DIDS concentration): > 300 µM"
O=C(NCC1CCCCN1)c1cc(OCC(F)(F)F)ccc1OCC(F)(F)F (stereo not drawn) [flecainide],,,,,,,,,effect on 2-APB-induced sporadic ectopic activity (SMA) (rat left atria [2]): suppress this arrhythmic activity
"COC(=O)c1c(C)[nH]c(C)c1C(=O)c1ccccc1Cc1ccccc1 [FPL-64176, 2,5-Dimethyl-4-[2-(phenylmethyl)benzoyl]-1H-pyrrole-3-carboxlic acid methyl ester]",35.3 msc,73.3 msc,52.8 msc,68* mg/gww,30 mg/gww,0 SMEs per minute,does not produce ectopic activity,increases their force of contraction,
Anemonia sulcata Toxin II [ATX II],,,,,,,,,induction of triggered activity (contractile doublets) (rat left atria [3]; left atria paced at 1 Hz): triggered activity is induced
